Reference: PMC3598914, “In Vivo Detection of Human TRPV6-Rich Tumors with Anti-Cancer Peptides Derived from Soricidin” (PLoS ONE, 2013)
“Also recorded” adds a separate entry of the source. Residues, ends and D or L forms follow the SMILES beside them.

Assays:
[1] = biological target: T1, human TRPV6 channels (Homo sapiens, UniProt Q9H1D0); test: whole-cell patch clamp of TRPV6/EGFP transfected HEK-293 cells; format: cell-based; conditions: for reduction of TRPV6 current amplitude / reduction of maximum TRPV6 current amplitude: p<0.05; for Kd: washout not possible under voltage ramp stimulation, Kd estimated, read-out: K1 (Kd estimated to be equal to K1); for reduction of maximum TRPV6 current amplitude: n = 5, successive exposures
T1 construct: containing cDNA for the protein-coding region of TRPV6; expressed in transfected cells; host or cells: HEK-293 cells transiently transfected with pdi-CaT-L (pCAGGS backbone, gift of V. Flockerzi)
T1 sequence (Q9H1D0 41-765 limits assumed): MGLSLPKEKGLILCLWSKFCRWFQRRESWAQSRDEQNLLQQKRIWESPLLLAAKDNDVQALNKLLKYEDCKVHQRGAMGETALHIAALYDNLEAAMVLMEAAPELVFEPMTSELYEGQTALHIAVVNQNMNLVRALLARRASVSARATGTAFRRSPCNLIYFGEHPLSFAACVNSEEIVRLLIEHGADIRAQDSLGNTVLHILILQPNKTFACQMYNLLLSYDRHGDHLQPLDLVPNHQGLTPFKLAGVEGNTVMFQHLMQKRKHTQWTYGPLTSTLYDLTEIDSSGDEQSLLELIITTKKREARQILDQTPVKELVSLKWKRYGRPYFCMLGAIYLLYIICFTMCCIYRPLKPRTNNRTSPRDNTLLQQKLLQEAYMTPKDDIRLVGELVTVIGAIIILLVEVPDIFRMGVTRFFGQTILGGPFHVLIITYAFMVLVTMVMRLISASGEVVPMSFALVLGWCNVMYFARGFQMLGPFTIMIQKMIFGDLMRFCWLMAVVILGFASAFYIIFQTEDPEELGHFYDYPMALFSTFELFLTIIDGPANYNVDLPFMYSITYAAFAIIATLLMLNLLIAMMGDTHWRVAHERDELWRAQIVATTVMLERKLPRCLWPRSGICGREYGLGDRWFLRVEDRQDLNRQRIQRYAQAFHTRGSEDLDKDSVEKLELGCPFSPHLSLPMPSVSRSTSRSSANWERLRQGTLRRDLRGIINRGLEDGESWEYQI
Protocol: Human HEK-293 cells (6–9 passages) were plated in a 24-well plate at a density of 5×10^5 cells per well, 24 hours before transfection. Each well was diluted in serum-free medium and incubated for 5 minutes at room temperature then combined slowly and incubated at room temperature. After a 20 minute incubation, cells were exposed to the transfection complex consisting of 0.5 µg of pdi-CaT-L plasmid DNA (a gift from Dr. V. Flockerzi, Experimentelle und Klinische Pharmakologie und Toxikologie der Universität des Saarlandes) and 1.5 µl lipofectamine 2000 reagent. pdi-CaT-L is a bicistronic expression vector containing cDNA for the protein-coding region of TRPV6 and the mutated Green Fluorescent Protein (S65T; EGPF) separated by an […] (β-actin promoter /KOZAK/TRPV6/IRES/EGFP in pCAGGS). The IRES was derived from encephalomyocarditis virus. Transfection of HEK-293 cells with the bicistronic vector allows for simultaneous production of TRPV6 and EGFP and selection of fluorescent cells producing TRPV6 for the electrophysiology measurements. From previous investigations using this plasmid and other similar plasmids, it was determined that the TRPV6 channel is highly expressed, localized at the membrane surface, glycosylated and constitutively active giving rise to a Ca^2+-invoked inward current [33]–[35].
Whole-cell patch clamp recordings were performed on HEK-293 cells expressing TRPV6 and EGFP. Transfected cells were readily identified from non-transfected cells using a fluorescent Axiovert 135 microscope […]. The recordings were performed using an Axopatch 1D amplifier controlled and monitored using pClamp 9 software (MDS Analytical Technologies, Sunnyvale, CA, USA). Data sets were digitized at 20 kHz and filtered at 2 kHz. […] The extracellular solution contained: 145 mM NaCl, 10 mM CsCl, 10 mM CaCl2, 2 mM MgCl2, 2.8 mM KCl, 10 mM HEPES and 10 mM glucose with pH adjusted to 7.2 using NaOH.
To isolate TRPV6 currents, HEK-293 and transfected HEK-293 cells were voltage-clamped at +50 mV with a 50 ms linear voltage ramp (−110 mV to +90 mV) protocol applied in the presence or absence of a TRPV6 inhibitor, La^3+ ions (10 µM), SOR-C27, SOR-C13 or SOR-C27-Cy5.5. Although the La^3+ ion is a non-specific inhibitor there is currently no known selective inhibitor of the TRPV6 channel. The ramp was averaged over 10 times at 2 s intervals between ramps.
Analysis was performed off-line using IGOR (WaveMetrics Inc., Lake Oswego, OR, USA) software. The statistical significance was determined with paired Students' t-test (two-tailed). All values are expressed as mean ± SEM with a p-value of <0.05 considered significant.

[2] = solubility in NMR samples; format: physicochemical; conditions: 10 mM in 90/10 H2O/D2O, 50 mM potassium phosphate pH 6.6; with 200 mM NaCl; with 100 mM DPC; 2 mM with 100 mM SDS; visual statement, 274 to 308 K
Protocol: Nuclear magnetic resonance (NMR) spectroscopic data was acquired to determine the conformational structural features of the SOR-C27 peptide under various conditions. A stock solution (sample #1) of 10 mM SOR-C27 was prepared in 90/10 H2O/D2O with 50 mM potassium phosphate buffer at pH 6.6. From sample #1, three additional samples were prepared: #2) stock solution with 200 mM NaCl, #3) stock solution with 100 mM dodecylphosphocholine (DPC) and #4) stock solution diluted to 2 mM with 100 mM sodium dodecylsulfate (SDS).

[3] = system: HEK-293 cells transfected with TRPV6; conditions: low doses; cited from earlier work
From the text: (§1) The link between tumor growth and over-expression of TRPV6 may involve the potentiation of calcium-dependent cell proliferation and inhibition of apoptosis. […] In the LNCaP prostate cancer cell line, up-regulation of TRPV6 augments proliferation and cell survival while retarding apoptosis through a mechanism that appears to involve activation of the nuclear factor of activated T-cell (NFAT) transcription ...

[4] = system: TRPV6; conditions: breast cancer cells; cited from earlier work
From the text: as §1

[5] = system: TRPV6 channels; conditions: cited from earlier work
From the text: Herein, we described the TRPV6 binding properties of SOR-C13 and SOR-C27 and the ability of these peptides to target human ovarian tumors in ...

[6] = Table 1; no reference given; cited from earlier work
From the text: Table 1 Amino acid sequences of parent soricidin (accession number P0C2P6), SOR-C27 and SOR-C13. | column: Activity

[7] = biological target: T2, SOR-C13 (soricidin C-terminal peptide) (Blarina brevicauda); test: whole-cell patch clamp
T2 chain: KEFLHPSKVDLPR

[8] = biological target: T3, SOR-C27 (soricidin C-terminal peptide) (Blarina brevicauda); test: whole-cell patch clamp
T3 chain: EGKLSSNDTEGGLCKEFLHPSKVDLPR

CC(C)C[C@H](NC(=O)[C@H](Cc1ccccc1)NC(=O)[C@H](CCC(=O)O)NC(=O)[C@@H](N)CCCCN)C(=O)N[C@@H](Cc1c[nH]cn1)C(=O)N1CCC[C@H]1C(=O)N[C@@H](CO)C(=O)N[C@@H](CCCCN)C(=O)N[C@H](C(=O)N[C@@H](CC(=O)O)C(=O)N[C@@H](CC(C)C)C(=O)N1CCC[C@H]1C(=O)N[C@@H](CCCNC(=N)N)C(=O)O)C(C)C [SOR-C13] (H-KEFLHPSKVDLPR-OH)
reduction of TRPV6 current amplitude ([1]; 83.5 nM, n = 9, mean ± SEM): 18±4.0% | reduction of TRPV6 current amplitude ([1]; 417.5 nM, n = 9, mean ± SEM): 22±4% | reduction of TRPV6 current amplitude ([1]; 835 nM, n = 7, mean ± SEM): 24±4% | reduction of TRPV6 current amplitude ([1]; 25 µM, n = 7, mean ± SEM): 25±5%

CC(C)C[C@H](NC(=O)[C@H](Cc1ccccc1)NC(=O)[C@H](CCC(=O)O)NC(=O)[C@@H](N)CCCCN)C(=O)N[C@@H](Cc1cnc[nH]1)C(=O)N1CCC[C@H]1C(=O)N[C@@H](CO)C(=O)N[C@@H](CCCCN)C(=O)N[C@H](C(=O)N[C@@H](CC(=O)O)C(=O)N[C@@H](CC(C)C)C(=O)N1CCC[C@H]1C(=O)N[C@@H](CCCNC(=N)N)C(=O)O)C(C)C [SOR-C13] (H-KEFLHPSKVDLPR-OH)
Kd [1]: 14 ± 1.3 nM

CC(C)C[C@H](NC(=O)CNC(=O)CNC(=O)[C@H](CCC(=O)O)NC(=O)[C@@H](NC(=O)[C@H](CC(=O)O)NC(=O)[C@H](CC(N)=O)NC(=O)[C@H](CO)NC(=O)[C@H](CO)NC(=O)[C@H](CC(C)C)NC(=O)[C@H](CCCCN)NC(=O)CNC(=O)[C@@H](N)CCC(=O)O)[C@@H](C)O)C(=O)N[C@@H](CS)C(=O)N[C@@H](CCCCN)C(=O)N[C@@H](CCC(=O)O)C(=O)N[C@@H](Cc1ccccc1)C(=O)N[C@@H](CC(C)C)C(=O)N[C@@H](Cc1c[nH]cn1)C(=O)N1CCC[C@H]1C(=O)N[C@@H](CO)C(=O)N[C@@H](CCCCN)C(=O)N[C@H](C(=O)N[C@@H](CC(=O)O)C(=O)N[C@@H](CC(C)C)C(=O)N1CCC[C@H]1C(=O)N[C@@H](CCCNC(=N)N)C(=O)O)C(C)C [SOR-C27] (H-EGKLSSNDTEGGLCKEFLHPSKVDLPR-OH)
reduction of maximum TRPV6 current amplitude ([1]; 65.2 nM, mean ± SEM): 17±4% | reduction of maximum TRPV6 current amplitude ([1]; 326 nM, mean ± SEM): 27±5% | reduction of maximum TRPV6 current amplitude ([1]; 652 nM, mean ± SEM): 31±5% | reduction of maximum TRPV6 current amplitude ([1]; 20 µM, mean ± SEM): 34±5% | Kd [1]: 65 ± 1 nM | IC50 ([1]; whole-cell patch clamp, 50 ms voltage ramp -110 to +90 mV, dose-response curve, mean ± SEM, b62/b63, read-out: IC50 (Kd) for reduction of TRPV6 current amplitude): 65 ± 1 nM | solubility [2]: completely soluble in all solutions and under all conditions

Clc1ccc(COC(Cn2ccnc2)c2ccc(Cl)cc2Cl)cc1 (stereo not drawn) [econazole]
effect on calcium inflow signals and cell proliferation [3]: reduced both calcium inflow signals and cell proliferation

CC/C(=C(\c1ccccc1)c1ccc(OCCN(C)C)cc1)c1ccccc1 [tamoxifen]
effect on TRPV6 expression and calcium signaling [4]: reduces expression of TRPV6 and calcium signaling

DCSQDCAACSILARPAELNTETCILECEGKLSSNDTEGGLCKEFLHPSKVDLPR [Soricidin]
inhibition of TRPV6 calcium channels / calcium uptake [5]: found to inhibit the transient receptor potential of vallinoid type 6 (TRPV6) calcium channels; also recorded: inhibit calcium uptake via TRPV6 channels | Activity [6]: Pain/ Cancer

B1: TRPV6 (protein)
chain: MGPLQGDGGPALGGADVAPRLSPVRVWPRPQAPKEPALHPMGLSLPKEKGLILCLWSKFCRWFQRRESWAQSRDEQNLLQQKRIWESPLLLAAKDNDVQALNKLLKYEDCKVHQRGAMGETALHIAALYDNLEAAMVLMEAAPELVFEPMTSELYEGQTALHIAVVNQNMNLVRALLARRASVSARATGTAFRRSPCNLIYFGEHPLSFAACVNSEEIVRLLIEHGADIRAQDSLGNTVLHILILQPNKTFACQMYNLLLSYDRHGDHLQPLDLVPNHQGLTPFKLAGVEGNTVMFQHLMQKRKHTQWTYGPLTSTLYDLTEIDSSGDEQSLLELIITTKKREARQILDQTPVKELVSLKWKRYGRPYFCMLGAIYLLYIICFTMCCIYRPLKPRTNNRTSPRDNTLLQQKLLQEAYMTPKDDIRLVGELVTVIGAIIILLVEVPDIFRMGVTRFFGQTILGGPFHVLIITYAFMVLVTMVMRLISASGEVVPMSFALVLGWCNVMYFARGFQMLGPFTIMIQKMIFGDLMRFCWLMAVVILGFASAFYIIFQTEDPEELGHFYDYPMALFSTFELFLTIIDGPANYNVDLPFMYSITYAAFAIIATLLMLNLLIAMMGDTHWRVAHERDELWRAQIVATTVMLERKLPRCLWPRSGICGREYGLGDRWFLRVEDRQDLNRQRIQRYAQAFHTRGSEDLDKDSVEKLELGCPFSPHLSLPMPSVSRSTSRSSANWERLRQGTLRRDLRGIINRGLEDGESWEYQI
Kd [7]: 14 nM | Kd [8]: 65 nM
